Test results from patent publication US9844226B2 (AJINOMOTO CO., INC., priority 2009, dated 2017).
Entries after “also recorded” stand apart in the source; their conditions may differ.

Experiments:
[1] = biological target: T1, human CaSR (Homo sapiens, UniProt P41180, E1011Q); test: Evaluation of CaSR agonist activity (Ca2+ fluorescence, EC50); assay type: cell-based; conditions: comparison with other dipeptides
T1 construct: expressed in transfected cells; host or cells: 293E cells (EBNA1-expressing HEK293 cells, ATCC No. CRL-10852), transient transfection with Fugene6
T1 sequence (P41180 20-1078 E1011Q): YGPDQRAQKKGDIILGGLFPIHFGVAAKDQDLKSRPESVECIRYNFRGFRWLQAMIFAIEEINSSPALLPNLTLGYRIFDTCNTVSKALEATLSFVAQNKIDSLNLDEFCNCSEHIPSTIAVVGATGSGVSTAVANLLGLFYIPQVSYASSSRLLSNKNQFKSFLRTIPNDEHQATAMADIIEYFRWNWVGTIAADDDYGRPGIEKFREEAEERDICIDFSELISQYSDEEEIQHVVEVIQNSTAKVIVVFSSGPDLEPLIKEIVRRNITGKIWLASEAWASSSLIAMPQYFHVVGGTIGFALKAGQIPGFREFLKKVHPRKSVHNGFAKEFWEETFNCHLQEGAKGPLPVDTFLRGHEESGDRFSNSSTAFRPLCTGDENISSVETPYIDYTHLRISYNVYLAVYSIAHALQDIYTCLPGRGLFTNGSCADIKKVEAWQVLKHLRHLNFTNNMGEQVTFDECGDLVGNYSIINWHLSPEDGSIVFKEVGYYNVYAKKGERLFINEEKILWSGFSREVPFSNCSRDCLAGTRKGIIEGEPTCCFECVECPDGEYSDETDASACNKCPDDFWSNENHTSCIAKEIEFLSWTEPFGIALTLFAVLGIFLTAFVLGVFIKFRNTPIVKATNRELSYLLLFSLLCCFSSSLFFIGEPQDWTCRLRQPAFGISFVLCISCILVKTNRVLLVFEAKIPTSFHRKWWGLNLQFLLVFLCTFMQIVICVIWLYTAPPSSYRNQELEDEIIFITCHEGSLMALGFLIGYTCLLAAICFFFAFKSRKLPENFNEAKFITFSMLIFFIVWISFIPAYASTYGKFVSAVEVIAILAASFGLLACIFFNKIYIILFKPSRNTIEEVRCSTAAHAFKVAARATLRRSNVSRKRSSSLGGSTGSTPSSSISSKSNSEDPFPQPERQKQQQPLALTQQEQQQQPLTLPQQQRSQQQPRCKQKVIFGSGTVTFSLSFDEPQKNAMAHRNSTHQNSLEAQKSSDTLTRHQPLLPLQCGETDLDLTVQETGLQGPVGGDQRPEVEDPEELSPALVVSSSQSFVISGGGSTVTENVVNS
Procedure: The cells were seeded into a F25 flask at 3×10^6 cells/10 mL, and allowed to stand in a CO2 incubator (5% CO2, 37° C.) for 24 hours. Then, the cells were transfected with the human CaSR-expression plasmid hCaSR/pcDNA3.1 by using a transfection reagent Fugene6 (available from Roche Company). The cells were placed in a CO2 incubator for 6 to 7 hours, and then the cells were harvested by using DMEM/Ham's-F12 containing 10% fetal calf serum. Then, the cells were seeded into a poly-D-lysine-coated 96-well plate (BD-Biocoat) at 70,000 cells/well.
The plate was allowed to stand over 24 hours in a CO2 incubator, and then the culture medium was removed from the 96-well plate into which the cells were seeded. […] Then, the indicator was incorporated into the cells by allowing the plate to stand at 37° C. for one hour, and then at room temperature for 10 minutes.
Method for the Determination of EC50:
The differences between the maximum value and minimum value of the fluorescent intensity (RFU (Max-Min)) were determined by automatic calculation of FLEX Station before and after the addition of the compound. The percentage of activities was calculated, with the RFU (Max-Min) at the time when the maximum concentration of the compound added was defined to be 100%, and the RFU (Max-Min) at the time when the 0.1% BSA-containing assay buffer containing no test compound was defined to be 0%.

[2] = Stability (statement only); assay type: physicochemical; conditions: compared with γ-Glu-Cys
[3] = test system: panelists; test: Sensory evaluation of salty taste in low salt chicken stock, use in combination with an organic acid; assay type: in vivo, human; conditions: γ-Glu-Abu 0.0040 g/dL in low salt chicken stock (salt 0.48 g/dL); control = 3, 1.25x salt = 4, 1.5x salt = 5; n=6
Procedure: The sensory evaluation tests were carried out as follows. […] A test compound in an appropriate amount was dissolved in the solution, and the salty taste strength was measured. No pH adjustment is necessary, such as the lowering of the pH, because there is no difference in pH between the solution after dissolving each test compound and the control without any added compound. […] To clarify the scale, the sensory evaluation scores were set as follows: the salty taste of the control: 3 points; the salty taste of a soup with increased salt concentration by 1.25 times as compared to that of control: 4 points; and the salty taste of a soup with increased salt concentration by 1.5 times as compared to that of the control: 5 points. The sensory evaluation was carried out using a panel of n (the number of panelists)=6. For the scoring a linear scale method was used. In this method, the score was marked as a position on a straight line showing positions for scores ranging from 1 3 5. The panelists used in this test were persons who had been engaged in the development of seasonings for foods for at least one year or longer in total, and who were capable of determining that the difference in potency between γ-[…] and γ-[…] each added to an umami and salty taste solution was around 10 times, while confirming the ability of these persons at regular intervals.

[4] = test system: panelists; test: Quantitative sensory evaluation test of kokumi-imparting activity; assay type: in vivo, human
Procedure: This quantitative sensory evaluation test was carried out as follows: The strength of the kokumi-imparting activity was measured for the cases where the test compound was mixed at concentrations of 0.001 to 0.5 g/dL with distilled water containing sodium glutamate (0.05 g/dL), inosine monophosphate (0.05 g/dL), and sodium chloride (0.5 g/dL). After the test compound was dissolved, samples more acidic than a control with no added test compound were adjusted, before further use, with NaOH to have a pH in a range of ±0.2 from the pH of the control with no added test compound. The sensory evaluation scores were as follows: control: 0 points; strong: 3 points; very strong: 5 points. The sensory evaluation was carried out using n (the number of panelists)=4. Moreover, to clarify the scale, the initial taste and the middle/after taste of γ-[…] at 0.001 g/dL were both set as 3.0 points. The term “middle/after taste” refers to the taste perceived during the period which includes the middle taste and the after taste. For the scoring, a linear scale method was employed. In this method, the score was marked as a position on a straight line showing positions for scores ranging from -5 0 5.

[5] = test system: panelists; test: Quantitative sensory evaluation test of salty taste enhancement; assay type: in vivo, human
Procedure: After the test compound was dissolved, samples more acidic than a control containing no added test compound were adjusted, before further use, with NaOH to have a pH in a range of ±0.2 from the pH of the control to which no test compound was added.
The sensory evaluation scores were as follows, the control to which no test compound was added, i.e. a 0.5 g/dL sodium chloride solution: 0 points; a 0.75 g/dL sodium chloride solution: 5 points. The sensory evaluation was conducted on a scale ranging from −5 to 0 to 5, with n=5. The “initial taste” refers to the taste perceived by each panelist from the start of eating the sample to 2 seconds thereafter, while the term “middle/after taste” refers to that perceived by each panelist from 2 seconds on and after eating the same, i.e. perceived during the period including both the middle taste and the after taste. For the scoring, a linear scale method was used. In this method, the score was marked as a position on a straight line showing positions for scores ranging from −5˜0˜5. The panelists were persons who were engaged in the development of seasonings for foods for one year or longer in total, and who were capable of determining that the difference in the potency between γ-Glu-Cys-Gly and γ-Glu-Val-Gly each added to a umami taste and salty taste solution was around 10 times, while confirming the ability of these persons at regular intervals.

[6] = 0.005 g/dL in water with MSG 0.05, IMP 0.05, NaCl 0.5 g/dL, scale -5~0~5, n=4
[7] = 0.004 g/dL in 0.5 g/dL NaCl, 0.5 g/dL NaCl = 0, 0.75 g/dL NaCl = 5, n=5

CC[C@H](NC(=O)CC[C@H](N)C(=O)O)C(=O)O
CaSR effect and activity (in words) [1]: strong CaSR effect and activity comparable to that of γ-Glu-Cys
Stability (in words) [2]: excellent in stability
Str. of Salty Taste (score) [3]: 3.56 score
Strength of Kokumi Impartment, Initial Taste [4, 6]: 3.8 points
Strength of Kokumi Impartment, Middle/After Taste [4, 6]: 3.2 points
Kokumi-imparting potency (in words) ([4]; in vivo): extremely high potency; also recorded: excellent kokumi-imparting activity
Sensory Evaluation Profile (salty taste) ([5]; 0.004 g/dL in 0.5 g/dL NaCl): The salty taste was enhanced
Strength of Salty Taste Impartment, Initial Taste [5, 7]: 1.6 points
Strength of Salty Taste Impartment, Middle/After Taste [5, 7]: 1.5 points
Salty taste enhancement ability (in words) ([5]; comparison of γ-Glu-Val-Gly and γ-Glu-Abu): extremely well balanced salty taste enhancement
